Where two headings read alike, the source gives them in different places.
Columns and labels:
HBV [1] = test: HBV antiviral assay in HepG2.2.15 cells (HBsAg/HBeAg CLIA, secreted HBV DNA PCR); format: cell-based; details: Hepatitis B virus, HepG2.2.15, genotype D
HBV [2] = test: HBV-infected primary human hepatocytes (PHH) antiviral assay; format: cell-based; details: Hepatitis B virus, Hepatocyte, genotype D
recombinant human PAPD5 = molecular target: T1, recombinant human PAPD5 (Homo sapiens, UniProt Q8NDF8); test: PAPD5 ATP depletion assay; format: biochemical; details: 12.5 nM enzyme, 750 nM ATP, 3 h, mean of 3 experiments; read-out: IC50, PAPD5-mediated incorporation of ATP
T1 construct: made in house
T1 sequence (Q8NDF8 106-438 limits assumed): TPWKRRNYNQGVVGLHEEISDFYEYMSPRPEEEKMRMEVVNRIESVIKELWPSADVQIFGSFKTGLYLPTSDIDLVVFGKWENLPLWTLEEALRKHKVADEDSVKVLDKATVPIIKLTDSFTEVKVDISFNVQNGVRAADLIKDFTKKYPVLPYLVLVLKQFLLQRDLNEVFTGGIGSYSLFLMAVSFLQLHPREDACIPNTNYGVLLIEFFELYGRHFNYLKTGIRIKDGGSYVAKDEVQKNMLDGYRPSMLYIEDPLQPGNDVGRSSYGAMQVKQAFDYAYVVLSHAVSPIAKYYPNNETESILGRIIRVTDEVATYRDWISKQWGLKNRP

recombinant human PAPD7 = molecular target: T2, recombinant human PAPD7 (Homo sapiens, UniProt Q5XG87); test: PAPD7 ATP depletion assay; format: biochemical; details: 12.5 nM enzyme, 750 nM ATP, 3 h, mean of 3 experiments; read-out: IC50, PAPD7-mediated incorporation of ATP
T2 construct: made in house
T2 sequence (Q5XG87 226-558): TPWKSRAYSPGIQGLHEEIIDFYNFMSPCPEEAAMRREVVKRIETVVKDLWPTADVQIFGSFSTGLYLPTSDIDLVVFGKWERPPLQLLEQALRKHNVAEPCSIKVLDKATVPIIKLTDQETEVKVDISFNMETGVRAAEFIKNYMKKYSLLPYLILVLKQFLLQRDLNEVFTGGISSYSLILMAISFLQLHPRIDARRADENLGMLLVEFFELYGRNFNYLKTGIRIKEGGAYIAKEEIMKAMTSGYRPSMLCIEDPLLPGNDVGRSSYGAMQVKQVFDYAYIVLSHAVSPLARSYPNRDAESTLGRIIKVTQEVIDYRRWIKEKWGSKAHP

[3] = test system: HBsAg with wildtype HBV PRE; test: HBV PRE variant phenotyping in Huh-7: wild-type PRE plasmid (HBsAg); format: cell-based; details: Hepatitis B virus, Huh-7, 120 h, read-out: HBsAg EC50
[4] = test system: HBsAg with SLα deletion mutant (ΔSLα) PRE; test: HBV PRE variant phenotyping in Huh-7: ΔSLα plasmid (HBsAg); format: cell-based; details: Hepatitis B virus, Huh-7, 120 h, read-out: HBsAg EC50
HBV pgRNA and preS/S RNA = test: Kinetics of HBV RNA degradation in HepAD38 cells (Northern blot); format: cell-based, hepatitis B virus; details: HepAD38, GLS4 + AB-161 (100 nM)
HBV [5] = test: HBV life cycle analysis in HepG2.2.15 cells; format: cell-based, hepatitis B virus; details: ETV 1 μM, GLS4 1 μM, AB-161 100 nM
in vitro [6] = format: in vitro ADME; details: dog, plasma
in vitro [7] = format: in vitro ADME; details: monkey, plasma
WNV = test: Antiviral selectivity panel: WNV; format: cell-based; details: West Nile virus, Vero 76, in Primates; Vero76 (monkey kidney)
HRV = test: Antiviral selectivity panel: HRV; format: cell-based; details: Human rhinovirus sp., HEp-2; HEp2 (human epithelial)
in vitro [8] = details: hamster
[9] = Tolerability in AAV-HBV mice; details: once-daily dosing for 14 days
Wild-type HBV = test: HBV polymerase variant phenotyping in Huh-7: wild-type; details: Hepatitis B virus
HBV genotypes A–H = test: HBV genotype coverage in HBV transfected Huh-7 cells (HBsAg); details: Hepatitis B virus
[10] = read-out: HBeAg EC50 (converted)

## COc1cc(OC(F)F)c2nc3c(n2c1)C[C@@H](C(C)(C)C)c1cc(C(=O)O)c(=O)[nH]c1-3 [AB-161]
HBV [1]; 144 h, 6-day incubation, read-out: HBsAg EC50
  EC50: 2.3 ± 1 nM
HBV [1]; secreted HBV DNA, read-out: HBV DNA EC50 (converted)
  EC50: 0.36 nM
HBV [1]; with 40% human serum, read-out: HBsAg (40% human serum) EC50 (converted)
  EC50: 63 nM
HBV [1]; [10]
  EC50: 13.7 nM
HBV [2]; read-out: HBV RNA EC50 (converted)
  EC50: 9.6 nM
HBV [2]; [10]
  EC50: 11.9 nM
HBV [2]; read-out: HBsAg EC50
  EC50: 8.5 ± 4.7 nM
Recombinant human PAPD5
  IC50: 850 nM
Recombinant human PAPD7
  IC50: 1100 nM
[3]
  EC50: 2.5 nM
[4]
  EC50: > 100 nM
HBV pgRNA and preS/S RNA; 8 h and 16 h post-treatment
  levels of pgRNA and preS/S RNA: substantially reduced
HBV pgRNA and preS/S RNA; starting at 2 h post-treatment
  migration of pgRNA and preS/S RNA (shortening of the viral transcripts): faster migration
HBV [5]
  HBV DNA replication: inhibited
  intracellular HBV RNA (pgRNA, preS/S RNA): inhibited
  viral proteins: HBV core and capsid assembly: inhibited
In vitro [6]
  fraction unbound at 6 h, 500 ng/mL: 0.047
In vitro [7]
  fraction unbound at 6 h, 500 ng/mL: 0.02
WNV
  EC50: > 30000 nM
HRV
  EC50: > 30000 nM
Huh-7 cells; HBV transfected Huh-7, genotypes A–H
  CC50: > 50000 nM
Huh-7 cells; Huh-7, HBV genotype A
  CC50: > 50000 nM
Huh-7 cells; Huh-7, HBV genotype C
  CC50: > 50000 nM
Huh-7 cells; Huh-7, HBV genotype D
  CC50: > 50000 nM
Huh-7 cells; Huh-7, HBV genotype E
  CC50: > 50000 nM
Huh-7 cells; Huh-7, HBV genotype F
  CC50: > 50000 nM
Huh-7 cells; Huh-7, HBV genotype H-1
  CC50: > 50000 nM
Huh-7 cells; Huh-7, HBV genotype H-2
  CC50: > 50000 nM
MRC-5 (human lung)
  CC50: > 30000 nM
HEp2 (human epithelial)
  CC50: > 30000 nM
In vitro [8]
  CC50: > 30000 nM
[9]
  tolerability: well-tolerated
Wild-type HBV; Huh-7, read-out: EC50 (HBsAg)
  EC50: 1.9 to 4.9 nM
Wild-type HBV; Huh-7, read-out: HBsAg, EC50
  EC50: 4.9 nM
HBV genotypes A–H; Huh-7, read-out: HBsAg EC50, HBV transfected Huh-7, range over genotypes A–H
  EC50: 2.1 to 4.5 nM
HBV genotypes A–H; Huh-7, read-out: HBsAg EC50, Huh-7, HBV genotype A
  EC50: 3 ± 0.8 nM
HBV genotypes A–H; Huh-7, read-out: HBsAg EC50, Huh-7, HBV genotype B
  EC50: 2.6 ± 1.4 nM
HBV genotypes A–H; Huh-7, read-out: HBsAg EC50, Huh-7, HBV genotype C
  EC50: 2.3 ± 0.6 nM
HBV genotypes A–H; Huh-7, read-out: HBsAg EC50, Huh-7, HBV genotype D
  EC50: 4.5 ± 2.8 nM
HBV genotypes A–H; Huh-7, read-out: HBsAg EC50, Huh-7, HBV genotype E
  EC50: 2.5 ± 0.9 nM
HBV genotypes A–H; Huh-7, read-out: HBsAg EC50, Huh-7, HBV genotype F
  EC50: 3.3 ± 2.6 nM
HBV genotypes A–H; Huh-7, read-out: HBsAg EC50, Huh-7, HBV genotype H-1
  EC50: 2.4 ± 0.5 nM
HBV genotypes A–H; Huh-7, read-out: HBsAg EC50, Huh-7, HBV genotype H-2
  EC50: 2.1 ± 0.9 nM

Source: PMC10975527 (Viruses, 2024)
